According to PubChem BioAssay (NCI):
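At the GI50, growth is halved. TGI: total growth inhibition.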

Key:
Assay in all cases: growth of human tumour cells (NCI), 384-well format
786-0 renal = system: 786-0 renal
A498 renal = system: A498 renal
A549 NSCLC = system: A549 NSCLC
ACHN renal = system: ACHN renal
BT-549 breast = system: BT-549 breast
CAKI-1 renal = system: CAKI-1 renal
CCRF-CEM leukemia = system: CCRF-CEM leukemia
COLO 205 colon = system: COLO 205 colon
DU-145 prostate = system: DU-145 prostate
EKVX NSCLC = system: EKVX NSCLC
HCC-2998 colon = system: HCC-2998 colon
HCT-116 colon = system: HCT-116 colon
HCT-15 colon = system: HCT-15 colon
HL-60(TB) leukemia = system: HL-60(TB) leukemia
HOP-62 NSCLC = system: HOP-62 NSCLC
HOP-92 NSCLC = system: HOP-92 NSCLC
HS 578T breast = system: HS 578T breast
HT29 colon = system: HT29 colon
IGROV1 ovarian = system: IGROV1 ovarian
K-562 leukemia = system: K-562 leukemia
KM12 colon = system: KM12 colon
LOX IMVI melanoma = system: LOX IMVI melanoma
M14 melanoma = system: M14 melanoma
MALME-3M melanoma = system: MALME-3M melanoma
MCF7 breast = system: MCF7 breast
MDA-MB-231 breast = system: MDA-MB-231 breast
MDA-MB-435 melanoma = system: MDA-MB-435 melanoma
MDA-MB-468 breast = system: MDA-MB-468 breast
MOLT-4 leukemia = system: MOLT-4 leukemia
NCI-H226 lung = system: NCI-H226 lung
NCI-H23 lung = system: NCI-H23 lung
NCI-H322M lung = system: NCI-H322M lung
NCI-H460 NSCLC = system: NCI-H460 NSCLC
NCI-H522 lung = system: NCI-H522 lung
NCI/ADR-RES ovarian = system: NCI/ADR-RES ovarian
OVCAR-3 ovarian = system: OVCAR-3 ovarian
OVCAR-4 ovarian = system: OVCAR-4 ovarian
OVCAR-8 ovarian = system: OVCAR-8 ovarian
PC-3 prostate = system: PC-3 prostate
RPMI-8226 leukemia = system: RPMI-8226 leukemia
RXF 393 renal = system: RXF 393 renal
SF-268 CNS = system: SF-268 CNS
SF-295 CNS = system: SF-295 CNS
SF-539 CNS = system: SF-539 CNS
SK-MEL-28 melanoma = system: SK-MEL-28 melanoma
SK-MEL-5 melanoma = system: SK-MEL-5 melanoma
SK-OV-3 ovarian = system: SK-OV-3 ovarian
SN12C renal = system: SN12C renal
SNB-19 CNS = system: SNB-19 CNS
SNB-75 CNS = system: SNB-75 CNS
SR leukemia = system: SR leukemia
SW-620 colon = system: SW-620 colon
T-47D breast = system: T-47D breast
TK-10 renal = system: TK-10 renal
U251 glioblastoma = system: U251 glioblastoma
UACC-257 melanoma = system: UACC-257 melanoma

Nc1ccccc1NC(=O)c1ccc(CNc2nccc(-c3cccnc3)n2)cc1
GI50 ([…]-0 renal): 0.39 µM | TGI (786-0 renal): 2.36 µM | GI50 (A498 renal): 0.261 µM | TGI (A498 renal): 1.11 µM | GI50 (A549 NSCLC): 0.621 µM | TGI (A549 NSCLC): 2.37 µM | GI50 (ACHN renal): 0.348 µM | TGI (ACHN renal): 1.2 µM | GI50 (BT-549 breast): 0.497 µM | TGI (BT-549 breast): 2.39 µM | GI50 (CAKI-1 renal): 0.318 µM | TGI (CAKI-1 renal): 1.2 µM | GI50 (CCRF-CEM leukemia): 0.131 µM | TGI (CCRF-CEM leukemia): 0.266 µM | GI50 (COLO 205 colon): 0.292 µM | TGI (COLO 205 colon): 0.741 µM | GI50 (DU-145 prostate): 0.302 µM | TGI (DU-145 prostate): 1.42 µM | GI50 (EKVX NSCLC): 0.766 µM | TGI (EKVX NSCLC): 18.1 µM | GI50 (HCC-2998 colon): 0.342 µM | TGI (HCC-2998 colon): 1.2 µM | GI50 (HCT-116 colon): 0.136 µM | TGI (HCT-116 colon): 0.35 µM | GI50 (HCT-15 colon): 0.336 µM | TGI (HCT-15 colon): 1.31 µM | GI50 (HL-60(TB) leukemia): 0.113 µM | TGI (HL-60(TB) leukemia): 0.236 µM | GI50 (HOP-62 NSCLC): 0.255 µM | TGI (HOP-62 NSCLC): 1.26 µM | GI50 (HOP-92 NSCLC): 0.219 µM | TGI (HOP-92 NSCLC): 0.823 µM | GI50 (HS 578T breast): 0.217 µM | TGI (HS 578T breast): 0.498 µM | GI50 (HT29 colon): 0.285 µM | TGI (HT29 colon): 1.12 µM | GI50 (IGROV1 ovarian): 0.235 µM | TGI (IGROV1 ovarian): 0.808 µM | GI50 (K-562 leukemia): 0.12 µM | TGI (K-562 leukemia): 0.357 µM | GI50 (KM12 colon): 0.4 µM | TGI (KM12 colon): 3.85 µM | GI50 (LOX IMVI melanoma): 0.175 µM | TGI (LOX IMVI melanoma): 0.322 µM | GI50 (M14 melanoma): 0.456 µM | TGI (M14 melanoma): 1.64 µM | GI50 (MALME-3M melanoma): 0.15 µM | TGI (MALME-3M melanoma): 0.298 µM | GI50 (MCF7 breast): 0.213 µM | TGI (MCF7 breast): 1.09 µM | GI50 (MDA-MB-231 breast): 0.371 µM | TGI (MDA-MB-231 breast): 3.25 µM | GI50 (MDA-MB-435 melanoma): 0.209 µM | TGI (MDA-MB-435 melanoma): 0.419 µM | GI50 (MDA-MB-468 breast): 0.234 µM | TGI (MDA-MB-468 breast): 0.592 µM | GI50 (MOLT-4 leukemia): 0.15 µM | TGI (MOLT-4 leukemia): 0.285 µM | GI50 (NCI-H226 lung): 0.543 µM | TGI (NCI-H226 lung): 2.12 µM | GI50 (NCI-H23 lung): 0.248 µM | TGI (NCI-H23 lung): 1.32 µM | GI50 (NCI-H322M lung): 0.41 µM | TGI (NCI-H322M lung): 1.79 µM | GI50 (NCI-H460 NSCLC): 0.216 µM | TGI (NCI-H460 NSCLC): 1.3 µM | GI50 (NCI-H522 lung): 0.301 µM | TGI (NCI-H522 lung): 1.39 µM | GI50 (NCI/ADR-RES ovarian): 0.332 µM | TGI (NCI/ADR-RES ovarian): 1.27 µM | GI50 (OVCAR-3 ovarian): 0.374 µM | TGI (OVCAR-3 ovarian): 1.68 µM | GI50 (OVCAR-4 ovarian): 0.371 µM | TGI (OVCAR-4 ovarian): 1.67 µM | GI50 (OVCAR-8 ovarian): 0.242 µM | TGI (OVCAR-8 ovarian): 1.18 µM | GI50 (PC-3 prostate): 0.408 µM | TGI (PC-3 prostate): 8.81 µM | GI50 (RPMI-8226 leukemia): 0.0282 µM | TGI (RPMI-8226 leukemia): 0.0752 µM | GI50 (RXF 393 renal): 0.114 µM | TGI (RXF 393 renal): 0.426 µM | GI50 (SF-268 CNS): 0.225 µM | TGI (SF-268 CNS): 0.555 µM | GI50 (SF-295 CNS): 0.159 µM | TGI (SF-295 CNS): 0.306 µM | GI50 (SF-539 CNS): 0.473 µM | TGI (SF-539 CNS): 2.49 µM | GI50 (SK-MEL-28 melanoma): 0.19 µM | TGI (SK-MEL-28 melanoma): 0.368 µM | GI50 (SK-MEL-5 melanoma): 0.196 µM | TGI (SK-MEL-5 melanoma): 0.359 µM | GI50 (SK-OV-3 ovarian): 0.258 µM | TGI (SK-OV-3 ovarian): 1.38 µM | GI50 (SN12C renal): 0.593 µM | TGI (SN12C renal): 1.85 µM | GI50 (SNB-19 CNS): 0.74 µM | TGI (SNB-19 CNS): 2.54 µM | GI50 (SNB-75 CNS): 0.386 µM | TGI (SNB-75 CNS): 7.58 µM | GI50 (SR leukemia): 0.0326 µM | TGI (SR leukemia): 0.148 µM | GI50 (SW-620 colon): 0.208 µM | TGI (SW-620 colon): 0.657 µM | GI50 (T-47D breast): 0.198 µM | TGI (T-47D breast): 0.409 µM | GI50 (TK-10 renal): 0.244 µM | TGI (TK-10 renal): 1.18 µM | GI50 (U251 glioblastoma): 0.159 µM | TGI (U251 glioblastoma): 0.333 µM | GI50 (UACC-257 melanoma): 0.169 µM | TGI (UACC-257 melanoma): 0.344 µM
